Where two headings read alike, the source gives them in different places.
Test system: STAT3
Assay: STAT3-dependent luciferase reporter assay in MDA-MB-231-STAT3 stable cells
Format: cell-based, human
Settings: 20 μM; for inhibition of luciferase expression compared to DMSO vehicle control: significant = p value less than 0.05; for activity at 20 µM: Homo sapiens
Description: FIG. 12. Identification of active inS3-54 analogues. (A) Effects of inS3-54 analogues on STAT3-dependent luciferase expression. MDA-MB-231 cells with stable STAT3-dependent luciferase expression were treated with DMSO control, 20 μM inSTAT3-54 or its analogues (A1-A79), followed by measurement of luciferase activity. (*p<0.05; **p<0.01; ***p<0.001).
MDA-MB-231-STAT3 stable cell line with high level of STAT3-dependent luciferase expression was exposed to candidate compounds at 20 μM in DMSO for 48 hours based on previous studies, and luciferase activity was measured using a luciferase assay kit (Promega, USA), following manufacturer's instructions. The final DMSO concentration in this and following assays was 0.1% (vol/vol).

[1] = mean of experiments, relative to DMSO

Row | Structure (SMILES) | Rel. luciferase activity (%) 1 (experiment 1, relative to DMSO) [%] | Rel. luciferase activity (%) 2 (experiment 2, relative to DMSO) [%] | Rel. luciferase activity (%) 3 (experiment 3, relative to DMSO) [%] | Rel. luciferase activity (%) Mean [1] [%] | inhibition of luciferase expression compared to DMSO vehicle control | activity at 20 µM (experiment 1, relative to DMSO, read-out: Rel. luciferase activity (%) 1) [%] | activity at 20 µM (experiment 2, relative to DMSO, read-out: Rel. luciferase activity (%) 2) [%] | activity at 20 µM (experiment 3, relative to DMSO, read-out: Rel. luciferase activity (%) 3) [%] | activity at 20 µM (mean of experiments, relative to DMSO, read-out: Rel. luciferase activity (%) Mean) [%]
1 | O=C(O)c1cccc(N2C(=O)C(=Cc3ccc(-c4cc(Cl)ccc4Cl)o3)C=C2c2ccccc2)c1 [Compound A2] | 120.3 | 107.5 | 114.1 | 114.0 | – | – | – | – | –
2 | O=C1C(=Cc2ccc(Cl)cc2)C=C(c2ccccc2)N1c1ccc(Nc2ccccc2)cc1 [Compound A28] | 67.2 | 106.0 | 62.1 | 78.4 | – | – | – | – | –
3 | COc1ccc(C=C2C=C(c3ccccc3)N(c3cccc(Cl)c3Cl)C2=O)cc1 [Compound A58] | 78.9 | 81.8 | 36.8 | 65.8 | – | – | – | – | –
4 | CN(C)c1ccc(N2C(=O)C(=Cc3ccc([N+](=O)[O-])cc3)C=C2c2ccccc2)cc1 [Compound A77] | 109.7 | 103.0 | 77.0 | 96.6 | – | – | – | – | –
5 | O=C1C(=Cc2ccc(-c3ccc([N+](=O)[O-])cc3)o2)C=C(c2ccccc2)N1Cc1ccccc1 [Compound A64] | 79.8 | 109.6 | 49.0 | 79.5 | – | – | – | – | –
6 | Cc1ccc(N2C(=O)C(=Cc3ccc([N+](=O)[O-])cc3)C=C2c2ccccc2)cc1C [Compound A30] | 89.6 | 83.9 | 61.2 | 78.2 | – | – | – | – | –
7 | CCOC(=O)C1=C(C)N(c2ccc(OCC)cc2)C(=O)/C1=C\c1ccc([N+](=O)[O-])cc1 [Compound A79] | – | – | – | – | significantly inhibited | 10.2 | 44.8 | 55.6 | 36.9
8 | O=C1C(=Cc2ccc(-c3ccc([N+](=O)[O-])cc3)o2)C=C(c2ccccc2)N1c1ccc(F)cc1 [Compound A11] | 73.5 | 101.5 | 91.7 | 88.9 | – | – | – | – | –
9 | O=C1C(=Cc2ccc(Cl)cc2)C=C(c2ccccc2)N1c1ccc(Cl)cc1 [Compound A16] | 55.8 | 91.2 | 57.1 | 68.0 | – | – | – | – | –
10 | O=C1C(=Cc2ccc(Cl)cc2)C=C(c2ccccc2)N1c1ccc(-c2ccccc2)cc1 [Compound A20] | 63.2 | 85.1 | 63.8 | 70.7 | significantly inhibited | – | – | – | –
11 | O=C1C(=Cc2ccc(Cl)cc2)C=C(c2ccccc2)N1c1ccc2ccccc2c1 [Compound A59] | 124.7 | 148.5 | 80.5 | 117.9 | – | – | – | – | –
12 | Cc1ccccc1N1C(=O)C(=Cc2ccc(-c3ccc([N+](=O)[O-])cc3)o2)C=C1c1ccccc1 [Compound A9] | 78.4 | 95.8 | 96.2 | 90.2 | – | – | – | – | –
13 | COc1ccc(C=C2C=C(c3ccccc3)N(c3ccc(F)cc3)C2=O)cc1 [Compound A53] | 45.4 | 113.0 | 47.4 | 68.6 | – | – | – | – | –
14 | COC(=O)c1ccc(N2C(=O)C(=Cc3ccc(OC)cc3)C=C2c2ccccc2)cc1 [Compound A54] | 77.8 | 100.8 | 41.7 | 73.5 | – | – | – | – | –
15 | O=C1C(=Cc2ccc(-c3ccc([N+](=O)[O-])cc3)o2)C=C(c2ccccc2)N1c1cccc(Cl)c1 [Compound A10] | 87.4 | 110.4 | 103.7 | 100.5 | – | – | – | – | –
16 | O=C(O)c1cc(N2C(=O)C(=Cc3ccc([N+](=O)[O-])cc3)C=C2c2ccccc2)ccc1O [Compound A70] | 99.0 | 97.9 | 92.8 | 96.5 | – | – | – | – | –
17 | COc1ccc(C=C2C=C(c3ccccc3)N(c3ccccc3O)C2=O)cc1 [Compound A73] | 72.9 | 97.8 | 103.4 | 91.3 | – | – | – | – | –
18 | COc1ccc(C=C2C=C(c3ccccc3)N(c3ccc(N(C)C)cc3)C2=O)cc1 [Compound A78] | 71.7 | 107.9 | 61.0 | 80.2 | – | – | – | – | –
19 | O=C1C(=Cc2ccc(Cl)cc2)C=C(c2ccccc2)N1c1cccc(Cl)c1 [Compound A76] | 60.0 | 151.4 | 104.0 | 105.1 | – | – | – | – | –
20 | O=C1C(=Cc2ccc(Cl)cc2)C=C(c2ccccc2)N1c1ccc(F)cc1 [Compound A22] | 97.9 | 114.0 | 61.1 | 91.0 | – | – | – | – | –
21 | COc1ccccc1N1C(=O)C(=Cc2ccc([N+](=O)[O-])cc2)C=C1c1ccccc1 [Compound A32] | 58.2 | 99.2 | 58.6 | 72.0 | – | – | – | – | –
22 | COC(=O)c1ccc(N2C(=O)C(=Cc3ccc([N+](=O)[O-])cc3)C=C2c2ccccc2)cc1 [Compound A43] | 98.6 | 100.4 | 66.9 | 88.6 | – | – | – | – | –
23 | CCN(CC)c1ccc(N2C(=O)C(=Cc3ccc([N+](=O)[O-])cc3)C=C2c2ccccc2)cc1 [Compound A45] | 60.9 | 89.3 | 71.6 | 73.9 | significantly inhibited | – | – | – | –
24 | CCOC(=O)c1ccc(N2C(=O)C(=Cc3ccc(Cl)cc3)C=C2c2ccccc2)cc1 [Compound A74] | 65.9 | 105.7 | 74.5 | 82.0 | – | – | – | – | –
25 | O=C(O)c1ccc(N2C(=O)C(=Cc3ccc(-c4ccc(Cl)c(Cl)c4)o3)C=C2c2ccccc2)cc1 [Compound A61] | 57.8 | 107.0 | 40.8 | 68.5 | – | – | – | – | –
26 | COc1cccc(N2C(=O)C(=Cc3ccc([N+](=O)[O-])cc3)C=C2c2ccccc2)c1 [Compound A41] | 60.5 | 79.5 | 81.2 | 73.7 | significantly inhibited | – | – | – | –
